Laboratory results: patent publication US5037578A, “O,O'-bridged oligophenylene laser dyes and dyestuff lasers and method of lasing therewith” (Exciton Chemical Company, priority 1990, dated 1991)
Values after ≈ are worked out from the molar mass of the structure shown. Values joined by “and” are separate entries in the source; they are usually repeats but may differ in a detail not shown here. Identical values can stand only once.

Tests used:
[1] = Solubilities of o,o'-bridged oligophenylenes in laser solvents at 21° C.; type: physicochemical; conditions: for Solubility: 21° C.; for Solubility compared with 2,2'-bifluorene: in solvents (Table I)
From the text: It is further discovered that when substituent X of the bridged biphenyl moiety is a carbon atom which is free of benzylic hydrogens, the laser dye is relatively less reactive and relatively more soluble. In other words, it has been realized that the absence of benzylic hydrogens from the bridged carbon substituent, that is, the carbon substituent that is bonded directly to the phenyl moieties to form the bridge, renders the organic laser dyes of the present invention less reactive and more soluble. In view of the present disadvantages concerning the solubility of organic laser dyes available hitherto, this is quite significant.

[2] = Fluorescence emission spectrum and Fluorescence Quantum Efficiency; type: physicochemical; conditions: for Fluorescence emission intensity, first peak / Fluorescence emission intensity, second peak / Fluorescence emission peak, first / Fluorescence emission peak, second: slits 2 nm
From the text: The fluorescence emission spectrum for the dye 9,9-dipropylfluorene as illustrated in FIG. 1 was detected on a Perkin-Elmer MPF-44A, the slits were set at 2 nm and the excitation light was at 265 nm. The Fluorescence Quantum Efficiency (FQE) was about the same as that of fluorene - 55%; and the fluorescence emission peaks at 306 nm(intensity 86) and […](intensity 67) were also similar to those of fluorene [the fluorescence emission spectrum for fluorene as illustrated in FIG. 5 was also detected on a Perkin-Elmer MPF-44A, the slits were set at 2 nm and the excitation light was at 265 nm and the fluorescence emission peaks for fluorene are at 303 nm(intensity 93) and 311 nm(intensity 73)].
This dye had two fluorescence peaks of almost equal intensity at 360 nm(intensity 33) and 378 nm(intensity 28) as illustrated in FIG. 2. […] The fluorescence emission spectrum of the dye 9,9,9',9'-tetrapropyl-2,2'-bifluorene was detected on a Perkin-Elmer MPF-44A, the slits were set at 2 nm and the excitation light was at 331 nm.
This dye had fluorescence peaks at 324 nm(intensity 90) and 338 nm(intensity 76) and a reported fluorescence quantum yield of 100% in cyclohexane as illustrated in FIG. 3. […] The fluorescence emission spectrum for the dye 3-phenyldibenzofuran as illustrated in FIG. 3 was detected on a Perkin-Elmer MPF-44A, the slits were set at 2 nm and the excitation light was at 301 nm.
The dye, 3,3'-bi(dibenzofuran), was prepared in accordance with the process disclosed in H.O. Wirth, G. Waese and W. Kern: Synthese Und Eigenschaften Von: Oxydo-p-oligophenylenen. Makromol. Chem. 86: 139(1965) which is incorporated herein in its entirety by reference, and was purified by extraction from Brockmann Activity I alumina with chloroform in an Ace-Kauffman column to give a white solid, mp 249.5°-250.5° C. (lit.mp 252.5° C.). This dye had two fluorescence peaks of almost equal intensity at 353 nm(intensity 47) and 369 nm(intensity 30) in cyclohexane as illustrated in FIG. 4.

[3] = cyclohexane; reported; cited from earlier work

c1ccc(-c2ccc(-c3ccc(-c4ccccc4)cc3)cc2)cc1 [quaterphenyl, reference compound]
Solubility ([1]; Toluene): ~1.3 × 10^-3 M and ~0.4 g/l

CCn1c2ccccc2c2ccc(-c3ccc4c5ccccc5n(CC)c4c3)cc21 [9,9'-diethyl-2,2'-bicarbazole]
Violet fluorescence compared with compounds of Examples 2 and 4 ([2]; in alcohols): brighter violet fluorescence in alcohols than the compounds of Examples 2 and 4

c1ccc(-c2ccc3c(c2)oc2ccccc23)cc1 [3-phenyldibenzofuran]
Fluorescence quantum yield [3]: 100% | Solubility ([1]; 50% ethanol): 8.4 × 10^-3 M and 2.0 g/l | Solubility ([1]; 95% ethanol): 1.1 × 10^-2 M and 2.7 g/l | Solubility ([1]; 100% ethanol): 1.6 × 10^-2 M and 3.9 g/l | Solubility ([1]; Methanol): 1.2 × 10^-2 M and 2.9 g/l | Solubility ([1]; cyclohexane): > 2.44 g/l and > 1.0 × 10^-2 M | Solubility compared with p-terphenyl ([1]; in all cases (See Table I)): much greater than that of p-terphenyl | Solubility compared with p-terphenyl ([1]; methanol, 50% ethanol, 95% ethanol and absolute ethanol): much more soluble | Fluorescence emission intensity, first peak ([2]; excitation 301 nm, cyclohexane): 90 | Fluorescence emission intensity, second peak ([2]; excitation 301 nm, cyclohexane): 76 | Fluorescence emission peak, first ([2]; excitation 301 nm, cyclohexane): 324 nm | Fluorescence emission peak, second ([2]; excitation 301 nm, cyclohexane): 338 nm | FQE in methanol compared with cyclohexane ([2]; methanol): the same in methanol as in cyclohexane

c1ccc2c(c1)Cc1cc(-c3ccc4c(c3)Cc3ccccc3-4)ccc1-2 [2,2'-bifluorene]
Solubility ([1]; 1,2-dichloroethane): 1.0 × 10^-3 M and 0.33 g/l | Solubility ([1]; 95% ethanol): 0.4 g/L (≈ 1210 µM) | Solubility ([1]; 100% ethanol): 2.3 × 10^-5 M and 0.0077 g/l | Solubility ([1]; Toluene): 1.3 × 10^-3 M and 0.4 g/l | Solubility ([1]; cyclohexane): 3.0 × 10^-5 M and 0.01 g/l

c1ccc2c(c1)oc1cc(-c3ccc4c(c3)oc3ccccc34)ccc12 [3,3'-bi(dibenzofuran)]
Solubility ([1]; 95% ethanol): 1.0 × 10^-2 M and 2.5 g/l | Solubility ([1]; 100% ethanol): 6.3 × 10^-5 M and 0.021 g/l | Solubility ([1]; DMF): 2.5 × 10^-3 M and 0.84 g/l | Solubility ([1]; Methanol): 2.1 × 10^-5 M and 0.007 g/l | Solubility ([1]; Toluene): 2.4 × 10^-3 M and 0.8 g/l | Solubility ([1]; cyclohexane): 9.0 × 10^-5 M and 0.030 g/l | Solubility ([1]; dioxane): 1.3 × 10^-3 M and 0.43 g/l | Solubility compared with 2,2'-bifluorene [1]: greater than that of 2,2'-bifluorene | Fluorescence emission spectrum compared with dye of Example 2 [2]: almost superimposable on that of the dye discussed in Example 2 | Fluorescence emission intensity, first peak ([2]; excitation 323 nm, cyclohexane): 47 | Fluorescence emission intensity, second peak ([2]; excitation 323 nm, cyclohexane): 30 | Fluorescence emission peak, first ([2]; excitation 323 nm, cyclohexane): 353 nm | Fluorescence emission peak, second ([2]; excitation 323 nm, cyclohexane): 369 nm

CCCC1(CCC)c2ccccc2-c2ccccc21 [9,9-dipropylfluorene]
Fluorescence Quantum Efficiency (FQE) [2]: ~55% | Fluorescence emission intensity, first peak ([2]; excitation 265 nm): 86 | Fluorescence emission intensity, second peak ([2]; excitation 265 nm): 67 | Fluorescence emission peak, first ([2]; excitation 265 nm): 306 nm

c1ccc2c(c1)Cc1ccccc1-2 [fluorene, reference compound]
Fluorescence Quantum Efficiency (FQE) [2]: 55% | Fluorescence emission intensity, first peak ([2]; excitation 265 nm): 93 | Fluorescence emission intensity, second peak ([2]; excitation 265 nm): 73 | Fluorescence emission peak, first ([2]; excitation 265 nm): 303 nm | Fluorescence emission peak, second ([2]; excitation 265 nm): 311 nm

CCCC1(CCC)c2ccccc2-c2ccc(-c3ccc4c(c3)C(CCC)(CCC)c3ccccc3-4)cc21 [9,9,9',9'-tetrapropyl-2,2'-bifluorene]
Solubility ([1]; 100% ethanol): 7.8 × 10^-4 M and 0.39 g/l | Solubility ([1]; Methanol): 3.4 × 10^-4 M and 0.17 g/l | Solubility ([1]; cyclohexane): 2.0 × 10^-2 M and 10 g/l | Solubility ([1]; dioxane): 6.5 × 10^-3 M and 3.2 g/l | Solubility compared with 2,2'-bifluorene [1]: more soluble than 2,2'-bifluorene | Fluorescence emission intensity, first peak ([2]; excitation 331 nm): 33 | Fluorescence emission intensity, second peak ([2]; excitation 331 nm): 28 | Fluorescence emission peak, first ([2]; excitation 331 nm): 360 nm | Fluorescence emission peak, second ([2]; excitation 331 nm): 378 nm
